Measurements as given in US6809119B2, “Branched chain amino acid-dependent aminotransferase inhibitors and their use in the treatment of neurodegenerative diseases” (Warner-Lambert Company LLC, priority 2001, dated 2004).

Experiments:
[1] = target: T1, human Branched Chain Amino Acid Aminotransferase cytosolic form (hBCATc) (Homo sapiens, UniProt P54687); experiment: In vitro coupled enzyme assay, human BCAT cytosolic form; format: biochemical; conditions: inhibition of recombinant human BCATc; coupled glutamate dehydrogenase/NADH assay, 37° C., pH 7.8; read-out: rhBCATc
T1 construct: inferred from purification on a Ni-charged chelating column with imidazole elution; made in house; host or cells: E. coli BL21(DE3)
T1 sequence (P54687 1-386): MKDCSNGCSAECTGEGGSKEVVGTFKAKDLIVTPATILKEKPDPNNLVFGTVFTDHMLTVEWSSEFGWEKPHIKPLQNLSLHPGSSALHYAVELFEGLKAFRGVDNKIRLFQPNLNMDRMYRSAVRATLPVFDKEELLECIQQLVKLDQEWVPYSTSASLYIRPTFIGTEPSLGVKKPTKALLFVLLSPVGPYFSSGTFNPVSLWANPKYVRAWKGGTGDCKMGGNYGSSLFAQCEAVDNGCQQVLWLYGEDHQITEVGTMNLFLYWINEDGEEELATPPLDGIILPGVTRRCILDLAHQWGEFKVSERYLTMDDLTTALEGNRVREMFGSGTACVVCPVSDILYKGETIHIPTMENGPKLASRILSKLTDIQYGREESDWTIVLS
Experimental: In vitro enzyme assay: human Branched Chain Amino Acid Aminotransferase cytosolic form (hBCATc) and mitochondrial form (hBCATm) as well as rat BCAT cytosolic form were assayed at 37° C. in 25 mM phosphate buffer pH 7.8. In addition, 2 mM DTT and 12.5 mM EDTA were added to the assay mixture. A coupling enzyme assay was used to monitor the production of glutamate. The formation of NADH from NAD+at […] was followed on a 96-well plate Molecular Devices plate reader. The following components were used in this coupled assay: 4 mM ADP, 1 mM NAD+, 750 μM L-Leucine, 500 μM a-ketoglutarate, 10 μM pyridoxal phosphate, 1 unit glutamate dehydrogenase, and 1.25 μg of the appropriate BCAT enzyme. Inhibitions by compounds were assayed by adding various concentrations to this coupled assay procedure as a DMSO stock up to a 5% v/v DMSO/buffer ratio.
Enzyme Preparation: humanBCATc and ratBCATc were expressed in BL21(DE3) cells. A growing culture of cells was induced with 1 mM IPTG at room temperature overnight. These cells were harvested by centrifugation at 10,000 g for 20 minutes. The supernatant was discarded, and the cells were stored at −80° C. until needed. The protein was purified by the following method. The cell paste was resuspended in extraction buffer (0.1 M phosphate, pH 8.0, with 0.01 M Tris-HCL and 5 mM TCEP and then lysed on a French Press at 1000 psi. The lysate was centrifuged at 10,000 g for 15 minutes, and the pellet was discarded. The supernatant was loaded onto a Hitrap Chelating column previously charged with 0.1 M NiSO4 and washed with 3 to 4 column volumes of extraction buffer. The column was then washed with 0.01 Tris, pH 7.5, 10% glycerol, 150 mM NaCl, 5 mM TCEP for two column volumes. The column was then further washed with two column volumes of 0.1 M phosphate, pH 6.0, 0.01 M Tris, 10% glycerol, and 750 mM NaCl. Finally, the column was washed with two column volumes of the same buffer plus 50 mM imidazole. The BCAT enzyme was then eluted with the same buffer but with 350 mM imidazole. The eluant was then dialyzed overnight against 10 mM phosphate buffer pH 8.0, 10% glycerol, and 5 mM TCEP. The dialyzed protein was then loaded onto a Q-sepharose column and eluted using a salt gradient. Active fractions were collected and further purified on a Superose-12 column to yield pure BCAT protein.

Row | melting point | IC50 [1] | SMILES
1 | 193 to 195 °C | 40 µM | O=C(NNS(=O)(=O)c1ccccc1)c1ccc([N+](=O)[O-])cc1 [Example 1, Benzoic acid, 4-nitro-2-(phenylsulfonyl)hydrazide]
2 | 195.7 to 196.2 °C | 0.7 µM | O=C(NNS(=O)(=O)c1ccccc1)c1ccc(NS(=O)(=O)c2c(Cl)cc(Cl)cc2Cl)cc1 [Example 3, Benzoic acid, 4-[[(2,4,6trichlorophenyl)sulfonyl]amino]-, 2-(phenylsulfonyl)hydrazide]
3 | 94.1 to 94.9 °C | 3 µM | O=C(NNS(=O)(=O)c1ccccc1)c1ccc(NS(=O)(=O)c2ccc(Oc3ccccc3)cc2)cc1 [Example 6, Benzoic acid, 4-[[[(4-phenoxy)benzene]sulfonyl]amino]-, 2-(phenylsulfonyl)hydrazide]
4 | 185.6 to 186.5 °C | 7 µM | CS(=O)(=O)Nc1ccc(C(=O)NNS(=O)(=O)c2ccccc2)cc1 [Example 8, Benzoic acid, 4-[(methylsulfonyl)amino]-, 2-(phenylsulfonyl)hydrazide]
5 | 193 to 195 °C |  | O=C(NNS(=O)(=O)c1ccccc1)c1ccc(I)cc1 [Example 31, 4-Iodo-benzoic acid, 2-(phenylsulfonyl)hydrazide]

More lines, now with the values behind:

Row | SMILES | melting point | IC50 [1]
6 | Cc1cccc(S(=O)(=O)Nc2ccc(C(=O)NNS(=O)(=O)c3ccccc3)cc2)c1 (hydrate or solvate) [Example 17, Benzoic acid, 4-[[(3-methylphenyl)sulfonyl]amino]-, 2-(phenylsulfonyl)hydrazide] | 219 to 219.7 °C | 
7 | O=C(NNS(=O)(=O)c1ccccc1)c1ccc(NS(=O)(=O)c2ccc(C(F)(F)F)cc2)cc1 [Example 4, Benzoic acid, 4-[[[4-(trifluoromethyl)phenyl]sulfonyl]amino]-, 2-(phenylsulfonyl)hydrazide] | 98.5 to 99.4 °C | 6 µM
8 | Cc1cccc(Cl)c1S(=O)(=O)Nc1ccc(C(=O)NNS(=O)(=O)c2ccccc2)cc1 [Example 7, Benzoic acid, 4-[[(2-chloro-6-methylphenyl)sulfonyl]amino]-, 2-(phenylsulfonyl)hydrazide] | 214.4 to 215.6 °C | 
9 | Cc1ccc(S(=O)(=O)Nc2ccc(C(=O)NNS(=O)(=O)c3ccccc3)cc2)cc1 [Example 9, Benzoic acid, 4-[[(4-methylphenyl)sulfonyl]amino]-, 2-(phenylsulfonyl)hydrazide] | 191.6 to 192.4 °C | 3.8 µM
10 | CCc1ccc(S(=O)(=O)Nc2ccc(C(=O)NNS(=O)(=O)c3ccccc3)cc2)cc1 [Example 10, Benzoic acid, 4-[[(4-ethylphenyl)sulfonyl]amino]-, 2-(phenylsulfonyl)hydrazide] | 142.3 to 142.9 °C | 13 µM
11 | CCCc1ccc(S(=O)(=O)Nc2ccc(C(=O)NNS(=O)(=O)c3ccccc3)cc2)cc1 [Example 11, Benzoic acid, 4-[[(4-n-propylphenyl)sulfonyl]amino]-, 2-(phenylsulfonyl)hydrazide] |  | 7.5 µM
12 | CCCCc1ccc(S(=O)(=O)Nc2ccc(C(=O)NNS(=O)(=O)c3ccccc3)cc2)cc1 [Example 12, Benzoic acid, 4-[[(4-n-butylphenyl)sulfonyl]amino]-, 2-(phenylsulfonyl)hydrazide] | 76 to 77.1 °C | 4.6 µM
13 | O=C(NNS(=O)(=O)c1ccccc1)c1ccc(NS(=O)(=O)c2ccc(F)cc2)cc1 [Example 14, Benzoic acid, 4-[[(4-fluorophenyl)sulfonyl]amino]-, 2-(phenylsulfonyl)hydrazide] | 183.5 to 185 °C | 4.8 µM
14 | Cc1cccc(S(=O)(=O)Nc2ccc(C(=O)NNS(=O)(=O)c3ccccc3)cc2)c1 [Example 17, Benzoic acid, 4-[[(3-methylphenyl)sulfonyl]amino]-, 2-(phenylsulfonyl)hydrazide] |  | 2.3 µM
15 | Cc1ccc(S(=O)(=O)NNC(=O)c2ccc(Oc3ccccc3)cc2)cc1[N+](=O)[O-] [Example 22, 4-Phenoxybenzoic acid, 2-[(4-methyl-3-nitro)phenylsulfonyl]hydrazide] |  | 110 µM
